Measurements taken from patent US20180282662A1, “Process” (GIVAUDAN SA, priority 2014, published 2018).
Where two headings read alike, the source gives them in different places.

Legend:
[1] = Susceptibility to enzymatic degradation to the benzoic acid derivative; format: in vitro ADME
[2] = test system: primates; details: cited from earlier work
[3] = dogs; cited from earlier work
[4] = test system: guinea-pigs; details: guinea pig, in vivo; cited from earlier work
[5] = test system: reproductive organs of dogs; details: dog, in vivo; cited from earlier work
[6] = rats; cited from earlier work
[7] = test system: mice; details: mouse, in vivo; cited from earlier work
[8] = test system: reproductive organs of male rats; details: rat, in vivo; cited from earlier work
[9] = test system: male rats; details: cited from earlier work
[10] = test system: fatty acid synthesis; details: in vitro; cited from earlier work
[11] = test system: glucose synthesis; details: in vitro; cited from earlier work

With `Cc1cc(CC(C)C)ccc1CCC=O` [(I), 3-(4-Isobutyl-2-methylphenyl)propanal] the “enzymatic degradation to its benzoic acid derivative” value [1] was “not susceptible”.
For `CC(C=O)Cc1ccc(C(C)(C)C)cc1` (centres unmarked) [Lilial, 3-(4-tert-butylphenyl)-2-methylpropanal], the toxic effects [2] is listed as “No effects”, the “enzymatic degradation to tert-butyl benzoic acid (t-BBA)” value [3] is listed as “enzymatically degraded” and the toxic effects [4] is listed as “No effects”. For the same compound, the “toxic effects on the reproductive organs” value [5] was “toxic effects”, the “enzymatic degradation to tert-butyl benzoic acid (t-BBA)” value [6] was “enzymatically degraded” and the toxic effects [7] was “No effects”. The “toxic effects on the reproductive organs” value [8] was “toxic effects”.
For `CC(C)(C)c1ccc(C(=O)O)cc1` [tert-butyl benzoic acid], the testicular effects [9] is listed as “testicular effects”, the “inhibition of fatty acid synthesis” value [10] is listed as “inhibit” and the “inhibition of glucose synthesis” value [11] is listed as “inhibit”.
